# In ChEMBL document CHEMBL5696442, “Discovery of type II inhibitors of TGFβ-activated kinase 1 (TAK1) and mitogen-activated protein kinase kinase kinase kinase 2 (MAP4K2)” (J Med Chem, 2015):
# Activity calls are given as the source filed them. No cut-off for these calls is given here.
# Columns and labels:
# [1] = molecular target: Serine/threonine-protein kinase PAK 2 (Homo sapiens) (UniProt Q13177); test: Inhibition of PAK2 (unknown origin) at 10 uM by Ambit Kinomescan binding assay
# [2] = molecular target: Wee1-like protein kinase (Homo sapiens) (UniProt P30291); test: Inhibition of WEE1 (unknown origin) at 10 uM by Ambit Kinomescan binding assay
# [3] = molecular target: Cyclin-dependent kinase 11A (Homo sapiens) (UniProt Q9UQ88); test: Inhibition of CDC2L2 (unknown origin) at 10 uM by Ambit Kinomescan binding assay relative to control; values are per cent of control
# [4] = Inhibition of KHS1 Lys1 labeling site in human A-375 cells at 5 uM by KiNativ Profiling analysis relative to control; details: condition cancer
# [5] = Inhibition of KHS1/2 K2 labeling site in human Huh-7 cells at 1 uM by KiNativ Profiling analysis relative to control; details: condition cancer
# [6] = molecular target: Serine/threonine-protein kinase RIO3 (Homo sapiens) (UniProt O14730); test: Inhibition of RIOK3 (unknown origin) at 10 uM by Ambit Kinomescan binding assay
# [7] = molecular target: Dual specificity mitogen-activated protein kinase kinase 2 (Homo sapiens) (UniProt P36507); test: Inhibition of MEK2 (unknown origin) at 10 uM by Ambit Kinomescan binding assay
# Chain of Dual specificity mitogen-activated protein kinase kinase 2 (Homo sapiens) (P36507 whole entry): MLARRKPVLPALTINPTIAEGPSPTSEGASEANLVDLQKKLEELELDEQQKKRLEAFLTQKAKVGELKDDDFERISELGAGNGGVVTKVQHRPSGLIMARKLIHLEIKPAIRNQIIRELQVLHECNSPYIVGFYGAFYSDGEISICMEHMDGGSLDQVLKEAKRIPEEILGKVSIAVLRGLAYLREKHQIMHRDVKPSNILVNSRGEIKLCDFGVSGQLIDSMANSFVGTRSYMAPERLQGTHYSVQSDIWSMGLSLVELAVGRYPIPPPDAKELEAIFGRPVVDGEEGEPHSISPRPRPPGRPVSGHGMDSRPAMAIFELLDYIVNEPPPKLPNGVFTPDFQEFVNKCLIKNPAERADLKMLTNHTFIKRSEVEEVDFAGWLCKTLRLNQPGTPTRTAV
# [8] = molecular target: Cyclin-dependent kinase 9 (Homo sapiens) (UniProt P50750); test: Inhibition of CDK9 (unknown origin) at 10 uM by Ambit Kinomescan binding assay relative to control
# [9] = molecular target: T1, Receptor-interacting serine/threonine-protein kinase 4 (Homo sapiens) (UniProt P57078); test: Inhibition of RIPK4 (unknown origin) at 10 uM by Ambit Kinomescan binding assay
# T1 sequence (whole entry): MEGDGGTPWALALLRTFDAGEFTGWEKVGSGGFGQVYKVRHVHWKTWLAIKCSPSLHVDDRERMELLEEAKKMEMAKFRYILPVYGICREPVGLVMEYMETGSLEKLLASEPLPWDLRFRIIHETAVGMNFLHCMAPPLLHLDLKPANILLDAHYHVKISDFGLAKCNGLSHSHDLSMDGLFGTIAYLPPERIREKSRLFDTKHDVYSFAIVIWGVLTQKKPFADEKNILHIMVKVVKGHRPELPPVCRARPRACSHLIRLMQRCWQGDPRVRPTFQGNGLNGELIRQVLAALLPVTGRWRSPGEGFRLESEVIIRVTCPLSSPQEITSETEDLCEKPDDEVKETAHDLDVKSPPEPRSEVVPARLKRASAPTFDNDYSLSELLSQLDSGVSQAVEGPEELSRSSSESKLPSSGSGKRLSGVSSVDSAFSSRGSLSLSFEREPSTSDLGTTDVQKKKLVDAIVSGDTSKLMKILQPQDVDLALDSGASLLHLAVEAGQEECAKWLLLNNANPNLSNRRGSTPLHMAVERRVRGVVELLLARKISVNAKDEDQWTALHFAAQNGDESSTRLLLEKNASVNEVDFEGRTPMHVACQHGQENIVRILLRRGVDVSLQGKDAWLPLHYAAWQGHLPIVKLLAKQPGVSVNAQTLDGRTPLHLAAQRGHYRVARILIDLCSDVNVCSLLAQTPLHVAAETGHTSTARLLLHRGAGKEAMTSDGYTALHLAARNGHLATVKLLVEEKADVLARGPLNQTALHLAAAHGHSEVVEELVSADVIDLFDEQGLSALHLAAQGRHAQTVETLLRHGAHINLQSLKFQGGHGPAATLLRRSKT
# [10] = molecular target: Proto-oncogene tyrosine-protein kinase Src (Homo sapiens, UniProt P12931); test: Inhibition of SRC K1 labeling site in human Huh-7 cells at 10 uM by KiNativ Profiling analysis relative to control; format: cell-based
# Chain of Proto-oncogene tyrosine-protein kinase Src (P12931 2-536 limits assumed): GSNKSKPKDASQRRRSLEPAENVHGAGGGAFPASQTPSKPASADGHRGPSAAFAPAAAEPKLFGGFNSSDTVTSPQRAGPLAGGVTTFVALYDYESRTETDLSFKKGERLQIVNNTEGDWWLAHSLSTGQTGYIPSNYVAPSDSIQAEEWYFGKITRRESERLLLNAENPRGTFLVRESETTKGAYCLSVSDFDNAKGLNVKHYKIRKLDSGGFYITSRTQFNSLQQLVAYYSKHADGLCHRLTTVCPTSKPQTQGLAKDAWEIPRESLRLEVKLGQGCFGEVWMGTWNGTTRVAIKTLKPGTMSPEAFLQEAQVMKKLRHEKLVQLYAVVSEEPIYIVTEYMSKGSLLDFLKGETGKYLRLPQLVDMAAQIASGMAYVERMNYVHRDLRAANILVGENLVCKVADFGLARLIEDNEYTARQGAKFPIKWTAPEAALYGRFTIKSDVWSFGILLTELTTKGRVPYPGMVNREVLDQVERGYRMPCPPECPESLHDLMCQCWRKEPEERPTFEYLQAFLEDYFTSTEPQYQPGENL
# [11] = molecular target: T2, Inhibitor of nuclear factor kappa-B kinase subunit epsilon (Homo sapiens) (UniProt Q14164); test: Inhibition of IKKe K2 labeling site in human Huh-7 cells at 1 uM by KiNativ Profiling analysis relative to control; format: cell-based
# T2 sequence (whole entry): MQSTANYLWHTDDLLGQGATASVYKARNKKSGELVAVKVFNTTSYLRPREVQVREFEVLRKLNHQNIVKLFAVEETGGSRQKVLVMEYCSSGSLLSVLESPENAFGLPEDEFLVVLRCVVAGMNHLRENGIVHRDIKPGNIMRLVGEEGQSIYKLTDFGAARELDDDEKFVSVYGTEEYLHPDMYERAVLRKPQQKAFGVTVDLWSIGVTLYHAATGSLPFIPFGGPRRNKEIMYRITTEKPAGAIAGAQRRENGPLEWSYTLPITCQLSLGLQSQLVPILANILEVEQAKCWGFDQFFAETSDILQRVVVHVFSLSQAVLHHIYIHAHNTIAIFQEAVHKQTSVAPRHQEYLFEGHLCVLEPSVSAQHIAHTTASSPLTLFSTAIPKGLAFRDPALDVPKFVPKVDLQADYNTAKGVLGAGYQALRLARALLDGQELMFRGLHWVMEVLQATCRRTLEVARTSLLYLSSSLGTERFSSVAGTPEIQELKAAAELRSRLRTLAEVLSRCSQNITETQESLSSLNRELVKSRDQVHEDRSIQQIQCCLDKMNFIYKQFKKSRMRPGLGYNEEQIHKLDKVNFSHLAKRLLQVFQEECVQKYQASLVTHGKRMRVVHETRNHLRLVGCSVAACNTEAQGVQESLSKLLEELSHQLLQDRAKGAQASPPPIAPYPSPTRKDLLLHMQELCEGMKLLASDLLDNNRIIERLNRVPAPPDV
# [12] = molecular target: Dual specificity mitogen-activated protein kinase kinase 2 (Homo sapiens) (UniProt P36507); test: Inhibition of MAP2K2 Lys1 labeling site in human A-375 cells at 0.05 uM by KiNativ Profiling analysis relative to control; format: cell-based
# [13] = molecular target: 5'-AMP-activated protein kinase catalytic subunit alpha-1 (Homo sapiens) (UniProt Q13131); test: Inhibition of AMPKa1 ATP labeling site in human Huh-7 cell lysate at 1 uM by KiNativ Profiling analysis relative to control; format: subcellular
# Chain of 5'-AMP-activated protein kinase catalytic subunit alpha-1 (Homo sapiens) (Q13131 whole entry, looked up): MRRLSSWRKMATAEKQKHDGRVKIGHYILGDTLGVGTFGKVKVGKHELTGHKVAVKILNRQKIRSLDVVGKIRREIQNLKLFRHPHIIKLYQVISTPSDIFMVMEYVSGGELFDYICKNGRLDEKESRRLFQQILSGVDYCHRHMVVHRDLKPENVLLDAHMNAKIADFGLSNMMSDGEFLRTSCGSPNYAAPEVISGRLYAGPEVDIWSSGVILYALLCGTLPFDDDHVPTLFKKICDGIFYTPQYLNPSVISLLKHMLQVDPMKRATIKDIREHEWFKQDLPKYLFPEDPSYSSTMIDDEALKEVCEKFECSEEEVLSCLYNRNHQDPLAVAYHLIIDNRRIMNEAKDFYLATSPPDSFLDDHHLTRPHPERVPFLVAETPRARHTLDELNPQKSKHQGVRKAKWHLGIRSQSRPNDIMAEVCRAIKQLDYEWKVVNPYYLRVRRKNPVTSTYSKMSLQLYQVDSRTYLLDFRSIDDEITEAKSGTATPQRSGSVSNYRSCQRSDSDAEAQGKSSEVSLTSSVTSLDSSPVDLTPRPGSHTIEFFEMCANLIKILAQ
# [14] = molecular target: Serine/threonine-protein kinase WNK3 (Homo sapiens) (UniProt Q9BYP7); test: Inhibition of Wnk3 Lys2 labeling site in human Huh-7 cells at 1 uM by KiNativ Profiling analysis relative to control; format: cell-based
# Chain of Serine/threonine-protein kinase WNK3 (Homo sapiens) (Q9BYP7 whole entry): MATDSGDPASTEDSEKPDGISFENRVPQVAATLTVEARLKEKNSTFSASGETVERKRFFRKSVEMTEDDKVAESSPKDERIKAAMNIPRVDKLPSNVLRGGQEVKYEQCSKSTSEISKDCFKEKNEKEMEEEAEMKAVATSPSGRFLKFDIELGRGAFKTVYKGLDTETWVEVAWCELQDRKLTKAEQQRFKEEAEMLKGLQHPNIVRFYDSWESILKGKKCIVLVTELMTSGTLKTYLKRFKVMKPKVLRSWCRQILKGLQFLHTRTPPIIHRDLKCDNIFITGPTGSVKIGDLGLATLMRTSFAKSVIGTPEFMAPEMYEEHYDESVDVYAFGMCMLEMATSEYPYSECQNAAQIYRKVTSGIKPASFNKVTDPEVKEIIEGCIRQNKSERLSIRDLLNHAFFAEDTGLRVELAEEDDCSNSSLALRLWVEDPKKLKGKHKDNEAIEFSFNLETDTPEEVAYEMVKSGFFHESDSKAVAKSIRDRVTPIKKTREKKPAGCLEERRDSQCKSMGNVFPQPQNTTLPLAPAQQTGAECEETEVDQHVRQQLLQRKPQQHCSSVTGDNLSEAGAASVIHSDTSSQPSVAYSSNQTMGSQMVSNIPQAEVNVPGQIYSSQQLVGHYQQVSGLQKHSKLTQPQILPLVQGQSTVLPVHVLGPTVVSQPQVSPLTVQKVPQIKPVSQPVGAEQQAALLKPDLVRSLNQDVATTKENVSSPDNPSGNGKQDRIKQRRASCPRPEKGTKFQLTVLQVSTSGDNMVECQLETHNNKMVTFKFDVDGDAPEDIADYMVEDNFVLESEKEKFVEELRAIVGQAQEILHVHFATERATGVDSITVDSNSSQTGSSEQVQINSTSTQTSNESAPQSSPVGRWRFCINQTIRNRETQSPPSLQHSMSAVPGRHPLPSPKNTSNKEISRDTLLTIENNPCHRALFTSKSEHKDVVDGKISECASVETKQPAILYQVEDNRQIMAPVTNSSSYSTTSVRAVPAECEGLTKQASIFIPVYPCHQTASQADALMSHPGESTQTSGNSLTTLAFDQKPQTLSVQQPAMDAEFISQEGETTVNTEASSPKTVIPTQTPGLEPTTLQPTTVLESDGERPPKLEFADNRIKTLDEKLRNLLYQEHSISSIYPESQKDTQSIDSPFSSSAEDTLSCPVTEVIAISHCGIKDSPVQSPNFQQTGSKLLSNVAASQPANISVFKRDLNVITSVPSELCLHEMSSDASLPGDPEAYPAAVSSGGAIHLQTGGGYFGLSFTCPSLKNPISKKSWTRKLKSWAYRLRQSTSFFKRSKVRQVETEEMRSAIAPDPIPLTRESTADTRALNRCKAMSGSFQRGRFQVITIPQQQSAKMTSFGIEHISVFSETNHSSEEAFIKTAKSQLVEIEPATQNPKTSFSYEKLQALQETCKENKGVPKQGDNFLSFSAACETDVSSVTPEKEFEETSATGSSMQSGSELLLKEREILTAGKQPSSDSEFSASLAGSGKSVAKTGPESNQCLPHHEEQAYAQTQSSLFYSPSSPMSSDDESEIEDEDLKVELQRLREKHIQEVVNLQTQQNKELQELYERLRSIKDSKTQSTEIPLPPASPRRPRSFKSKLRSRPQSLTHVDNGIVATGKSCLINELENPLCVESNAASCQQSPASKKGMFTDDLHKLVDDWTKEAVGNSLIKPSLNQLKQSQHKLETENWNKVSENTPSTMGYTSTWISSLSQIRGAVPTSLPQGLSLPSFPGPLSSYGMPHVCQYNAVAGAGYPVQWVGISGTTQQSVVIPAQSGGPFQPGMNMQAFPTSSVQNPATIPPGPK
# [15] = molecular target: Epidermal growth factor receptor (Homo sapiens) (UniProt P00533); test: Inhibition of EGFR Lys1 labeling site harbouring GLWIPEGEKVKIPVAIKELR in human Huh-7 cell lysate at 1 uM by KiNativ Profiling analysis relative to control; format: subcellular
# Chain of Epidermal growth factor receptor (Homo sapiens) (P00533 whole entry): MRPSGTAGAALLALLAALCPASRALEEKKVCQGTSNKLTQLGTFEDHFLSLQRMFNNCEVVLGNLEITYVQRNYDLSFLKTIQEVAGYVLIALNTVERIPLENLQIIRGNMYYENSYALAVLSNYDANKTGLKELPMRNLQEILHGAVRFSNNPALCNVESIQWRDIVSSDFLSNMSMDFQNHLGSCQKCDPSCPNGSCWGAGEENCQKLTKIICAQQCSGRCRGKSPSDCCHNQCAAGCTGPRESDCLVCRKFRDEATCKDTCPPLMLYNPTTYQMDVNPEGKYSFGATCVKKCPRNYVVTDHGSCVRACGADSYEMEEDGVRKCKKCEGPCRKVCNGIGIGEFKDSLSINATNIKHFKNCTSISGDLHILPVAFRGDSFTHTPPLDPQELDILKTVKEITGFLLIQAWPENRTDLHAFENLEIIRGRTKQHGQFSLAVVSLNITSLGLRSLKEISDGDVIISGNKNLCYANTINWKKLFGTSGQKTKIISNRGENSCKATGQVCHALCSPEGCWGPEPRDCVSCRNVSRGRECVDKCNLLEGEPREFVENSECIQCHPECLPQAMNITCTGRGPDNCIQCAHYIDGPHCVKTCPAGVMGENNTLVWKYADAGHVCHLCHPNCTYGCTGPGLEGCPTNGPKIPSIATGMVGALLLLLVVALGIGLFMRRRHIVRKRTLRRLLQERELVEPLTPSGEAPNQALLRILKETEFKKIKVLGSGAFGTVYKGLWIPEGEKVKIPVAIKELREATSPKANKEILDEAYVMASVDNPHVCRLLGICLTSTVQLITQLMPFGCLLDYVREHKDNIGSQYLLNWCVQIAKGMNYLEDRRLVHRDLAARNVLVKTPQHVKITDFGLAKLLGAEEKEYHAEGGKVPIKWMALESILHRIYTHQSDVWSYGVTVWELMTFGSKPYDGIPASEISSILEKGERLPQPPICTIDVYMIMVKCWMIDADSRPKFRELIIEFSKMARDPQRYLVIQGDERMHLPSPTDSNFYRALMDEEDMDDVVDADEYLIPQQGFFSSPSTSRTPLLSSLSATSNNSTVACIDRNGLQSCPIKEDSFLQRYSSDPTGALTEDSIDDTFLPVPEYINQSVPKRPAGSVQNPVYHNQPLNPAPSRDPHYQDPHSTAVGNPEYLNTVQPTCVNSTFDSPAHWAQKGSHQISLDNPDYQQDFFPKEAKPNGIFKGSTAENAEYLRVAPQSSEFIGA
# [16] = molecular target: Epidermal growth factor receptor (Homo sapiens) (UniProt P00533); test: Inhibition of EGFR Lys1 labeling site harbouring IPVAIKELR in human Huh-7 cells at 1 uM by KiNativ Profiling analysis relative to control; format: cell-based
# [17] = molecular target: Serine/threonine-protein kinase 24 (Homo sapiens) (UniProt Q9Y6E0); test: Inhibition of MST3 (unknown origin) at 1 uM by Ambit Kinomescan binding assay relative to control
# Chain of Serine/threonine-protein kinase 24 (Homo sapiens) (Q9Y6E0 whole entry, looked up): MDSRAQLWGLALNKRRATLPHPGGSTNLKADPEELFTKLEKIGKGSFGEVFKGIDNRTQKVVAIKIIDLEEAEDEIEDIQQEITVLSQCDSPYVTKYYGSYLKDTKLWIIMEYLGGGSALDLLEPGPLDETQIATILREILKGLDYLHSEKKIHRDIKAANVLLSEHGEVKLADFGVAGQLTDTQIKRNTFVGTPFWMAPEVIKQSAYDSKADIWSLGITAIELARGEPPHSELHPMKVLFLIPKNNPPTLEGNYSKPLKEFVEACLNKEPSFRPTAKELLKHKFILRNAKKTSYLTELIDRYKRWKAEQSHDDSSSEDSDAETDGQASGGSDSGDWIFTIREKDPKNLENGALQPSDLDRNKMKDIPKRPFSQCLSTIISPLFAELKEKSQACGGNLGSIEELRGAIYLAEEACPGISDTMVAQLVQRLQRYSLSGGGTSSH
# [18] = molecular target: DNA-PK/Ku70/Ku85 (Homo sapiens) (UniProt P78527+P12956+P13010); test: Inhibition of DNAPK ATP labeling site harbouring GHDEREHPFLVKGGEDLR in human A-375 cells at 0.05 uM by KiNativ Profiling analysis relative to control; format: cell-based
compound,measurement,setting,value
CCN1CCN(Cc2ccc(NC(=O)c3ccc(C)c(Oc4ccnc5[nH]ccc45)c3)cc2C(F)(F)F)CC1,inhibition,[1],inactive
same,inhibition,[2],inactive
same,percent of control,[3],0.05%
same,inhibition at 5 µM,[4],61.3%
same,inhibition at 1 µM,[5],6.6%
same,inhibition,[6],inactive
same,inhibition,[7],inactive
same,inhibition,[8],5.8%
same,inhibition,[9],inactive
same,inhibition,[10],50.1%
same,inhibition,[11],17.7%
same,inhibition,[12],2.9%
CNc1cc(Oc2cc(C(=O)Nc3cc(N4CCN(C)CC4)cc(C(F)(F)F)c3)ccc2C)ncn1,inhibition,[13],11.2%
same,inhibition,[14],15.3%
same,inhibition,[15],9.9%
same,inhibition,[16],7.2%
CCN1CCN(Cc2ccc(NC(=O)c3ccc(C)c(/C=C/c4cnc5[nH]ccc5c4OC)c3)cc2C(F)(F)F)CC1,inhibition,[17],75%
same,inhibition,[18],21.3%
